Experimental data published in patent US20250082650A1, “COMBINED USE OF MULTIKINASE INHIBITOR” (TRANSTHERA SCIENCES (NANJING), INC., priority 2021, published 2025).

Legend:
[1] = tested on: mouse colon cancer MC38 subcutaneous homograft tumor; test: In vivo pharmacodynamic study, MC38 subcutaneous homograft tumor model, combination with PD-L1 antibody; details: MC38 tumor-bearing C57BL/6 mice; Compound 1 7.5 mg/kg oral Qd; PD-L1 antibody 5 mg/kg IP Q3d; 25 days
Description: Example 8: In Vivo Pharmacodynamic Study of the Compound of the Present Invention Combined with PD-L1 on Mouse Colon Cancer MC38 Subcutaneous Homograft Tumor Model
MC38 cells: mouse colon cancer cells from ATCC.
(§1) C57BL/6 mice, 6- to 8-week-old, female, from Shanghai Slac Laboratory Animal Co., Ltd.
(§2) PD-L1 antibody: InVivoMAb anti-mouse PD-L1 (B7-H1), clone number: 10F.9G2 (IgG2b), company: BioXcell, Cat. No. BE0101.
MC38 cells were cultured in monolayer in vitro. When the cells were in the exponential growth phase, the cells were harvested, counted, and inoculated.
(§3) 0.04 mL of a cell suspension containing about 3×10^5 MC38 cells was inoculated subcutaneously into the back skin of female C57BL/6 mice. The mice were grouped for administration when the average volume of tumors reached approximately 60 mm^3. Grouping method: Animals were weighed before administration and tumor volumes were measured. Grouping was designed in blocks according to the tumor volume, with 8 mice per group.
Administration was carried out as in Table 6 below.
(§4) Animals were monitored daily for health status and mortality, body weight and tumor volume were measured twice a week, and samples were collected after the last administration. The therapeutic effect of tumor volume was evaluated by TGI %, and the evaluation was conducted as shown in Example 5.

[2] = tested on: mouse colon cancer cell CT26.wt subcutaneous homograft tumor; test: In vivo pharmacodynamic study, CT26.wt subcutaneous homograft tumor model, combination with PD-1 antibody; details: CT26.wt tumor-bearing Balb/c mice, day 13; Compound 1 15 mg/kg PO QD; PD-1 antibody 10 mg/kg IP BIW; 1-14 days
Excerpt: Example 5: In Vivo Pharmacodynamic Study of the Compound of the Present Invention Combined with PD-1 Antibody on Mouse Colon Cancer Cell CT26.Wt Subcutaneous Homograft Tumor Model
Test sample: compound 1 of the present invention, having a structure shown above.
CT26.wt cells: mouse colon cancer cells from the Cell Bank of the Chinese Academy of Sciences.
Balb/c mice, 6- to 8-week-old, female, from Beijing Vital River Laboratory Animal Technology Co., Ltd.
PD-1 antibody: InVivoMAb anti-mouse PD-1, clone number: RMP1-14, company: BioXcell, Cat. No. BE0146.
CT26.wt cells were cultured in monolayer in vitro under the condition of an RPMI1640 medium supplemented with 10% heat-inactivated fetal bovine serum and 1% penicillin-streptomycin double antibody, and the culture was carried out at 37° C. and 5% CO2. […] When the cells were in the exponential growth phase, the cells were harvested, counted, and inoculated.
0.1 mL of a cell suspension containing about 1×10^6 CT26.wt cells (cells suspended in serum-free basal RPMI1640 medium) was inoculated subcutaneously into the left back skin of female Balb/c mice. […] Grouping method: Animals were weighed before administration and tumor volumes were measured. […]
Animals were monitored daily for health status and mortality, body weight and tumor volume were measured twice a week, and samples were collected after the last administration. […]

[3] = tested on: IDO-1 expression in Hela cells; test: Regulation of IDO protein levels in Hela cells (western blot); format: cell-based; details: interferon 50 ng/mL, co-incubation 16 h, 10-10000 nM, FIG. 2
Excerpt: Example 6: Study on Regulation of IDO Protein Levels in Hela Cells by the Compound of the Present Invention
Cells: Hela Cells from Cobioer.
Reagents: DMEM medium, fetal bovine serum, penicillin, streptomycin, […] from SinoBiological, protein loading buffer, RIPA protein lysis buffer, protease inhibitor, BCA protein content assay kit, trihydroxymethyl aminomethane, sodium dodecyl sulfate, ammonium persulfate, 30% Acry-Bis solution, phosphate buffer, Tween 20, bovine serum albumin, GAPDH antibody (rabbit) from CST company, IDO-1 antibody (rabbit) from CST, anti-rabbit secondary antibody from CST, and protein marker.
Cell culture and plating: Hela cells were cultured in a DMEM medium containing 10% fetal bovine serum and 1% penicillin-streptomycin double antibody and incubated in a water-jacketed incubator at 37° C. and 5% CO2. Subculture treatment was carried out in a 1:4 ratio. When the cells were in the exponential growth phase, the cells were harvested, counted, plated at a density of 5×10^5 cells/well in a 6-well cell culture plate, and cultured overnight. […]
Protein content assay and sample configuration: Protein content in each well was measured by using a BCA kit and Nanodrop, and according to the detection result, a sample loading buffer and a lysis buffer were added to adjust to a system of […] of protein/10 μL for sample loading of Western Blot detection. […]

[4] = tested on: mouse B cell lymphoma A20 subcutaneous homograft tumor; test: In vivo pharmacodynamic study, A20 subcutaneous homograft tumor model, combination with PD-L1 antibody; details: A20 tumor-bearing Balb/c mice; Compound 1 7.5 mg/kg oral Qd; PD-L1 antibody 10 mg/kg IP Q3d; 19 days
Description: Example 7: In Vivo Pharmacodynamic Study of the Compound of the Present Invention Combined with PD-L1 on Mouse B Cell Lymphoma A20 Subcutaneous Homograft Tumor Model
A20 cells: mouse B cell lymphoma cells from ATCC.
Balb/c mice, 6- to 8-week-old, female, from Zhejiang Vital River Laboratory Animal Technology Co., Ltd.
as §2
A20 cells were cultured in monolayer in vitro. When the cells were in the exponential growth phase, the cells were harvested, counted, and inoculated.
as §3, with “6×10^5 A20” for “3×10^5 MC38”, “Balb/c” for “C57BL/6”
Administration was carried out as in Table 4 below.
as §4

[5] = tested on: mouse pancreatic cancer Pan02 subcutaneous homograft tumor; test: In vivo pharmacodynamic study, Pan02 subcutaneous homograft tumor model, combination with PD-L1 antibody; details: Pan02 tumor-bearing C57BL/6 mice; Compound 1 7.5 mg/kg oral Qd; PD-L1 antibody 10 mg/kg IP Q3d; 25 days
Description: Example 9: In Vivo Pharmacodynamic Study of the Compound of the Present Invention Combined with PD-L1 on Mouse Pancreatic Cancer Pan02 Subcutaneous Homograft Tumor Model
Pan02 cells: mouse pancreatic cancer cells from ATCC.
as §1
PD-L1 antibody: InVivoMAb anti-mouse PD-L1 (B7-H1), clone number: 10F.9G2 (IgG2b), company: BioXcell, Cat. No. BE0101
Pan02 cells were cultured in monolayer in vitro. When the cells were in the exponential growth phase, the cells were harvested, counted, and inoculated.
as §3, with “0.06” for “0.04”, “1×10^6 Pan02” for “3×10^5 MC38”, “7” for “8”
Administration was carried out as in Table 8 below.
as §4

endometrial cancer = details: PD-1 antibody combined with E7080, endometrial cancer, ASCO 2017 clinical data; cited from earlier work

| Structure (SMILES) | TGI [1] | Tumor volume [1] | TGI (tumor volume inhibition rate) [2] | Tumor volume [2] | Expression of IDO-1 in Hela cells [3] | TGI [4] | Tumor volume [4] | TGI [5] | Tumor volume [5] | Control rate (endometrial cancer) |
| --- | --- | --- | --- | --- | --- | --- | --- | --- | --- | --- |
| Cc1[nH]nc2c1N=C(c1ccccc1Cl)c1cnc(N3CCOCC3)cc1N2 [Compound 1, 4-(5-(2-chlorophenyl)-3-methyl-2,10-dihydropyrazolo[4,3-b]pyrido[4,3-e][1,4]diazepin-8-yl)morpholine] | 50% | 554 mm^3 | 48% | 1150 ± 142 mm^3 | could effectively reduce the expression of IDO-1 | 26% | 519 mm^3 | 71% | 921 mm^3 |  |
| COc1cc2nccc(Oc3ccc(NC(=O)NC4CC4)c(Cl)c3)c2cc1C(N)=O [Compound E7080] |  |  |  |  |  |  |  |  |  | 96% |
